Experimental data from patent publication US6924414B2, “Muir-torre-like syndrome in Fhit deficient mice” (Thomas Jefferson University, priority 2000, dated 2005).
“And” between values parts separate entries of the source, which are not always exact repeats. Identical values can stand only once. “Also recorded” adds a separate entry of the source. Marks after values point to notes of the source that are not given here.

Columns and labels:
Fhit +/+ mice = test: Carcinogenicity study: NMBA tumor induction in Fhit +/+ mice; assay type: in vivo, mouse (C57BL/6J X 129/SvJ) F1
Method: (§1) (C57BL/6J X 129/SvJ) F1 mice (B6129F1s) that were Fhit +/+ or +/− were produced. 18 Fhit +/+ and 22 Fhit +/− mice (30-46 weeks) were given 8 intragastric doses of NMBA (Ash Stevens, Detroit, Mich.) over the course of 3 weeks at 2 mg/kg body weight. About half the mice were sacrificed six weeks after the final NMBA dose and the remaining mice at ten weeks. Tumor incidence differences were analyzed by two-tailed Fisher's exact test (Armitage and Berry, 1987, Statistical Methods in Medical Research, 2nd Ed., Blackwell Scientific, Oxford). For comparison, four untreated Fhit +/− mice (54-59 weeks old) and one untreated Fhit +/+ mouse (59 weeks old) were similarly autopsied. At autopsy, whole esophagi and stomachs were removed and opened longitudinally. Other tissues with apparent tumors were also examined. The number of animals bearing tumors in the esophagus, forestomach, squamocolumnar junction with the glandular stomach (SCJ) and other tissues were scored. Tissues were fixed in buffered formalin and examined histologically after hematoxylin and eosin (H&E) staining for the presence of hyperkeratosis, parakeratosis, dysplasia, papillomas, adenomas and carcinomas.

Fhit +/− mice = test: Carcinogenicity study: NMBA tumor induction in Fhit +/− mice; assay type: in vivo, mouse (C57BL/6J X 129/SvJ) F1
Method: as §1

Fhit exons 4 through 9 = test: Fhit sequence analysis of NMBA-induced tumors; parameters: species or system mouse; settings: DNA from sebaceous tumors of mice 21, 27, 31 and squamous papillomas of mice 25, 27
Source text: Primer pairs flanking each of the human FHIT exons (Druck et al., […], Cancer Res. 57:504-512) and the mouse FHIT coding exons were used in PCR amplification of DNA from MTS cases or mouse tumors, respectively. Primer pairs surrounding the mouse FHIT exons were previously published (Pekarsky et al., 1998, Cancer Res. 58:3401-3408) for exons 5 and 6 or newly designed […]
The products were purified with a PCR purification kit (Qiagen) before sequencing using Taq DyeDeoxy Terminator Cycle Sequencing Kits (ABI). Sequencing reaction products were electrophoresed and recorded on a 377 DNA sequencer (ABI). Southern Blot Analysis

[1] = test system: esophageal and forestomach tumors; settings: administered by gavage or in the drinking water; cited from earlier work
[2] = Fhit +/+, individual mice, 10 weeks after NMBA, T = tumors
[3] = Fhit +/−, individual mice, 10 weeks after NMBA, T = tumors

N-nitrosomethylbenzylamine [NMBA]
Fraction of tumor bearing animals, Fore stomach (Fhit +/+ mice; 6 wk post-treatment, Fhit +/+): 1/10 | Fraction of tumor bearing animals, SCJ (Fhit +/+ mice; 6 wk post-treatment, Fhit +/+): 0/10 | Tumor Bearing Mice (Fhit +/+ mice; 6 wk post-treatment, Fhit +/+): 2/10 | Fraction of tumor bearing animals, Esoph (Fhit +/+ mice; 6 wk post-treatment, Fhit +/+, number of mice with tumors/number of mice, 8 intragastric doses 2 mg/kg): 1/10 | Fraction of tumor bearing animals, Esoph (Fhit +/+ mice; 10 wk post-treatment, Fhit +/+): 0/8 | Fraction of tumor bearing animals, Fore stomach (Fhit +/+ mice; 10 wk post-treatment, Fhit +/+): 1/8 | Fraction of tumor bearing animals, SCJ (Fhit +/+ mice; 10 wk post-treatment, Fhit +/+): 1/8 | Fraction of tumor bearing animals, Sebaceous (Fhit +/+ mice; 10 wk post-treatment, Fhit +/+): 0/8 | Tumor Bearing Mice (Fhit +/+ mice; 10 wk post-treatment, Fhit +/+): 2/8 | Extragastric tumors (Fhit +/+ mice; Fhit +/+ mice): not observed | Comments (by histology) (Fhit +/+ mice; Fhit +/+, individual mice, 10 weeks after NMBA): sq papillomas; also recorded: papillary hyperplasia, esophagus; also recorded: adenoma | Phenotype Esoph. (Fhit +/+ mice; [2]): thick | Phenotype Forestomach (Fhit +/+ mice; [2]): thick; also recorded: sm. T | Phenotype SCJ (Fhit +/+ mice; [2]): thick and 7T+3 mm | body wt. (amount of wt. change during the experiment) (Fhit +/+ mice; Fhit +/+, individual mice, 10 weeks after NMBA, given with ↑): ↑1 g and ↑4 g (3×) and ↑6 g and ↑3 g (2×) and ↑2 g | Mice developing sebaceous tumors (Fhit +/+ mice; NMBA treated Fhit +/+ mice): none | Esophageal squamous papilloma by histological examination (Fhit +/+ mice; six weeks after NMBA, Fhit +/+): 1/10 | Mice showing a very small tumor of the esophagus or forestomach on inspection (Fhit +/+ mice; six weeks after treatment, Fhit +/+): two of ten | Mice with tumors (Fhit +/+ mice; six weeks post NMBA, Fhit +/+, histology): 20% | Tumor burden (mice exhibiting tumors) (Fhit +/+ mice; ten weeks post NMBA, Fhit +/+): 25% | Mice exhibiting tumors on inspection (Fhit +/+ mice; ten weeks, Fhit +/+): two of eight | Fraction of tumor bearing animals, Fore stomach (Fhit +/− mice; 6 wk post-treatment, Fhit +/−): 5/10 | Fraction of tumor bearing animals, SCJ (Fhit +/− mice; 6 wk post-treatment, Fhit +/−): 4/10 | Tumor Bearing Mice (Fhit +/− mice; 6 wk post-treatment, Fhit +/−): 7/10 | Fraction of tumor bearing animals, Esoph (Fhit +/− mice; 6 wk post-treatment, Fhit +/−, 1 esophagus showed dysplasia): 0/10^b | Fraction of tumor bearing animals, Esoph (Fhit +/− mice; 10 wk post-treatment, Fhit +/−): 2/12 | Fraction of tumor bearing animals, Fore stomach (Fhit +/− mice; 10 wk post-treatment, Fhit +/−): 10/12 | Fraction of tumor bearing animals, SCJ (Fhit +/− mice; 10 wk post-treatment, Fhit +/−): 5/12 | Fraction of tumor bearing animals, Sebaceous (Fhit +/− mice; 10 wk post-treatment, Fhit +/−): 7/12 | Tumor Bearing Mice (Fhit +/− mice; 10 wk post-treatment, Fhit +/−): 12/12 | Comments (by histology) (Fhit +/− mice; Fhit +/−, individual mice, 10 weeks after NMBA): sq. carcinoma forestomach, sq. pap. SCJ; also recorded: sq. pap. forestomach, Barretts-like gastric mucosa SCJ; also recorded: sq. pap. and adenoma forestomach; also recorded: sq. pap. and sq. carcinoma forestomach; also recorded: sq. pap. esoph, forestomach, SCJ; also recorded: sebaceous adnexal tumor; also recorded: sq. pap. esoph and forestomach, seb. tumor; also recorded: sq. pap. forestomach, sebaccous tumor; also recorded: hyperplastic gastric mucosa, SCJ sq. pap. seb. tumor; also recorded: forestomach sq. papillomas; sebaceous tumor | Phenotype Forestomach (Fhit +/− mice; [3]): 2T and few sm. T and multiple T (3×) and T.2-3 mm | Phenotype SCJ (Fhit +/− mice; [3]): few T; also recorded: multiple T | body wt. (amount of wt. change during the experiment) (Fhit +/− mice; Fhit +/−, individual mice, 10 weeks after NMBA, given with ↑): ↑3 g (2×) and ↑2 g (3×) and ↑4 g (4×) and ↑8 g (2×) and ↑6 g | Mice with large (>5×5 mm) sebaceous tumors (Fhit +/− mice; NMBA treated Fhit +/− mice under 1 yr. of age): 5 of 12 | Mice with one or more subcutis tumors in abdominal, mammary or axial area on autopsy (Fhit +/− mice; autopsy at 10 weeks, Fhit +/−): more than 50% | Mice developing a spectrum of visceral and skin tumors (Fhit +/− mice; by ten weeks after NMBA exposure, Fhit +/−): all | Mice showing tumors in the subcutis of the abdomen (visible before autopsy) (Fhit +/− mice; by ten weeks after the final dose, Fhit +/−): three | Mice showing one or more small tumors on inspection of whole esophagus and stomach (Fhit +/− mice; six weeks after treatment, Fhit +/−): seven of ten | Mice with tumors (Fhit +/− mice; six weeks post NMBA, Fhit +/−, histology): 70% | Tumor burden (mice exhibiting tumors) (Fhit +/− mice; ten weeks post NMBA, Fhit +/−): 100% | Mice showing apparent tumors in forestomach, squamocolumnar junction and/or other tissues (Fhit +/− mice; ten weeks, Fhit +/−, inspection): eleven of twelve | NMBA-induced mutations within Fhit exons 4 through 9 (Fhit exons 4 through 9): No mutations were detected | Tumor induction [1]: induce both esophageal and forestomach tumors
